# Measured values from PubChem BioAssay (NCI).
#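 48-hour exposure; five concentrations; linearly interpolated endpoints. GI50: concentration for 50% inhibition of growth. At the TGI there is no net growth.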
# Columns and labels:
# Assay in all cases: NCI tumour cell line growth inhibition, 48 h
# [1] = tested on: 786-0 renal
# [2] = tested on: A498 renal
# [3] = tested on: A549 NSCLC
# [4] = tested on: ACHN renal
# [5] = tested on: BT-549 breast
# [6] = tested on: CAKI-1 renal
# [7] = tested on: CCRF-CEM leukemia
# [8] = tested on: COLO 205 colon
# [9] = tested on: DU-145 prostate
# [10] = tested on: EKVX NSCLC
# [11] = tested on: HCC-2998 colon
# [12] = tested on: HCT-116 colon
# [13] = tested on: HCT-15 colon
# [14] = tested on: HL-60(TB) leukemia
# [15] = tested on: HOP-62 NSCLC
# [16] = tested on: HOP-92 NSCLC
# [17] = tested on: HT29 colon
# [18] = tested on: IGROV1 ovarian
# [19] = tested on: KM12 colon
# [20] = tested on: LOX IMVI melanoma
# [21] = tested on: MALME-3M melanoma
# [22] = tested on: MCF7 breast
# [23] = tested on: MDA-MB-231 breast
# [24] = tested on: MDA-MB-435
# [25] = tested on: MOLT-4 leukemia
# [26] = tested on: NCI-H226 lung
# [27] = tested on: NCI-H23 lung
# [28] = tested on: NCI-H460 lung
# [29] = tested on: NCI-H522 lung
# [30] = tested on: NCI/ADR-RES ovarian
# [31] = tested on: OVCAR-3 ovarian
# [32] = tested on: OVCAR-4 ovarian
# [33] = tested on: OVCAR-5 ovarian
# [34] = tested on: OVCAR-8 ovarian
# [35] = tested on: RPMI-8226 leukemia
# [36] = tested on: SF-268 CNS
# [37] = tested on: SF-295 CNS
# [38] = tested on: SF-539 CNS
# [39] = tested on: SK-MEL-2 melanoma
# [40] = tested on: SK-MEL-5 melanoma
# [41] = tested on: SK-OV-3 ovarian
# [42] = tested on: SN12C renal
# [43] = tested on: SNB-19 CNS
# [44] = tested on: SNB-75 CNS
# [45] = tested on: SR leukemia
# [46] = tested on: T-47D breast
# [47] = tested on: TK-10 renal
# [48] = tested on: U251 CNS
# [49] = tested on: UACC-257 melanoma
# [50] = tested on: UACC-62 melanoma
# [51] = tested on: UO-31 renal
smiles,measurement,setting,value
COc1cc(C(=O)/C=C/c2c(-c3cccs3)nc3ccccn23)cc(OC)c1OC,GI50,[1],2310 nM
same,TGI,[1],7070 nM
same,GI50,[2],987 nM
same,TGI,[2],> 100000 nM
same,GI50,[3],2040 nM
same,TGI,[3],5890 nM
same,GI50,[4],2090 nM
same,TGI,[4],5090 nM
same,GI50,[5],1860 nM
same,TGI,[5],5550 nM
same,GI50,[6],2310 nM
same,TGI,[6],8140 nM
same,GI50,[7],1660 nM
same,TGI,[7],6850 nM
same,GI50,[8],1770 nM
same,TGI,[8],3200 nM
same,GI50,[9],1900 nM
same,TGI,[9],4810 nM
same,GI50,[10],3120 nM
same,TGI,[10],> 100000 nM
same,GI50,[11],1960 nM
same,TGI,[11],3370 nM
same,GI50,[12],1630 nM
same,TGI,[12],3080 nM
same,GI50,[13],1600 nM
same,TGI,[13],5310 nM
same,GI50,[14],2010 nM
same,TGI,[14],5010 nM
same,GI50,[15],2880 nM
same,TGI,[15],6750 nM
same,GI50,[16],289 nM
same,TGI,[16],2780 nM
same,GI50,[17],2090 nM
same,TGI,[17],4190 nM
same,GI50,[18],1890 nM
same,TGI,[18],3730 nM
same,GI50,[19],1320 nM
same,TGI,[19],2790 nM
same,GI50,[20],1870 nM
same,TGI,[20],4900 nM
same,GI50,[21],3650 nM
same,TGI,[21],21700 nM
same,GI50,[22],1120 nM
same,TGI,[22],15400 nM
same,GI50,[23],3080 nM
same,TGI,[23],26200 nM
same,GI50,[24],2490 nM
same,TGI,[24],9520 nM
same,GI50,[25],1770 nM
same,TGI,[25],4390 nM
same,GI50,[26],2040 nM
same,TGI,[26],4300 nM
same,GI50,[27],2200 nM
same,TGI,[27],5330 nM
same,GI50,[28],1420 nM
same,TGI,[28],2840 nM
same,GI50,[29],1100 nM
same,TGI,[29],2380 nM
same,GI50,[30],1890 nM
same,TGI,[30],6920 nM
same,GI50,[31],2440 nM
same,TGI,[31],5360 nM
same,GI50,[32],3130 nM
same,TGI,[32],21600 nM
same,GI50,[33],2640 nM
same,TGI,[33],5820 nM
same,GI50,[34],1680 nM
same,TGI,[34],6310 nM
same,GI50,[35],1230 nM
same,TGI,[35],3720 nM
same,GI50,[36],2370 nM
same,TGI,[36],8470 nM
same,GI50,[37],2240 nM
same,TGI,[37],> 100000 nM
same,GI50,[38],1870 nM
same,TGI,[38],4500 nM
same,GI50,[39],2270 nM
same,TGI,[39],4350 nM
same,GI50,[40],1330 nM
same,TGI,[40],2720 nM
same,GI50,[41],3010 nM
same,TGI,[41],8350 nM
same,GI50,[42],2440 nM
same,TGI,[42],27000 nM
same,GI50,[43],2100 nM
same,TGI,[43],5560 nM
same,GI50,[44],2680 nM
same,TGI,[44],10200 nM
same,GI50,[45],1340 nM
same,TGI,[45],> 100000 nM
same,GI50,[46],1720 nM
same,TGI,[46],6790 nM
same,GI50,[47],3780 nM
same,TGI,[47],25400 nM
same,GI50,[48],1660 nM
same,TGI,[48],6030 nM
same,GI50,[49],1880 nM
same,TGI,[49],4460 nM
same,GI50,[50],1610 nM
same,TGI,[50],3570 nM
same,GI50,[51],1070 nM
same,TGI,[51],3170 nM
